Columns and labels:
[1] = test system: pS6 S235/236; assay: In-cell Western blot, pS6 S235/236; assay type: cell-based; details: Homo sapiens; A2058 cells, treated 1 h, normalized to α-Tubulin
Experimental: (§1) A2058 cells were plated at 20,000 cells/well in a 96-well plate (Perkin Elmer, Cat. No. 6005558) and 24 h later treated with different compounds for 1 h. […] Cells were fixed with 4% paraformaldehyde for 30 min at RT, washed 2 times with 1% BSA in PBS, permeabilized with 0.1% Triton X-100 in PBS/1% BSA for 30 min at rt and blocked with 5% goat serum in PBS/1% BSA/0.1% Triton X-100 for 30 min at rt. Cells were stained with primary antibody either with rabbit anti-pPKB S473 (1:500; Cell Signalling Technology, Cat. No. 4058) combined with mouse anti-α-Tubulin (1:2000; used for normalization; Sigma, Cat. No. T9026) or with rabbit anti-pS6 S235/S236 (1:500; Cell Signalling Technology, Cat. No. 4856) combined with mouse anti-α-Tubulin (1:2000; used for normalization) over night at 4° C. After 3 times 5 min wash with PBS/1% BSA/0.1% Triton cells were treated with the secondary antibodies goat-anti-mouse IRDye680 (LICOR, Cat. No. 926-68070) and goat-anti-rabbit IRDye800 (LICOR, 926-32211) (each diluted 1:500 in PBS/1% BSA/0.1% Triton) for 1 h while shaking in the dark. Cells were washed 3 times 5 min with PBS/1% BSA/0.1% Triton and plate scanned with the Odyssey Infrared Scanning system using both 700 and 800 nm channels. […] To correct for background staining in the data analysis wells were treated only with secondary antibodies.
(§2) For data analysis the mean background signal from channel 700 nm and 800 nm were subtracted from each signal in channel 700 nm and 800 nm, respectively. The signals in each channel were normalized to the 0% inhibition and then signal ratio 800 nm over 700 nm was performed to obtain the values for either pPBK S473 or pS6 S235/S236 normalized to α-Tubulin.
(§3) IC50 values of each compound were determined by plotting the normalized pPBK S473 and pS6 S235/S236 signals, respectively, versus the compound concentrations (in logarithmic scale) and then by fitting a sigmoidal dose-response curve with variable slope to the data using GraphPad™ Prism.

[2] = target: T1, PI3K alpha (p110α) (Homo sapiens, UniProt P42336); assay: In vitro PI3K alpha binding assay (time-resolved FRET, Tracer 314); details: N-terminally His-tagged PI3K alpha, 20 nM Tracer 314, 1 h at rt
T1 construct: purchased Life Technologies PV4789
T1 sequence (P42336 whole entry): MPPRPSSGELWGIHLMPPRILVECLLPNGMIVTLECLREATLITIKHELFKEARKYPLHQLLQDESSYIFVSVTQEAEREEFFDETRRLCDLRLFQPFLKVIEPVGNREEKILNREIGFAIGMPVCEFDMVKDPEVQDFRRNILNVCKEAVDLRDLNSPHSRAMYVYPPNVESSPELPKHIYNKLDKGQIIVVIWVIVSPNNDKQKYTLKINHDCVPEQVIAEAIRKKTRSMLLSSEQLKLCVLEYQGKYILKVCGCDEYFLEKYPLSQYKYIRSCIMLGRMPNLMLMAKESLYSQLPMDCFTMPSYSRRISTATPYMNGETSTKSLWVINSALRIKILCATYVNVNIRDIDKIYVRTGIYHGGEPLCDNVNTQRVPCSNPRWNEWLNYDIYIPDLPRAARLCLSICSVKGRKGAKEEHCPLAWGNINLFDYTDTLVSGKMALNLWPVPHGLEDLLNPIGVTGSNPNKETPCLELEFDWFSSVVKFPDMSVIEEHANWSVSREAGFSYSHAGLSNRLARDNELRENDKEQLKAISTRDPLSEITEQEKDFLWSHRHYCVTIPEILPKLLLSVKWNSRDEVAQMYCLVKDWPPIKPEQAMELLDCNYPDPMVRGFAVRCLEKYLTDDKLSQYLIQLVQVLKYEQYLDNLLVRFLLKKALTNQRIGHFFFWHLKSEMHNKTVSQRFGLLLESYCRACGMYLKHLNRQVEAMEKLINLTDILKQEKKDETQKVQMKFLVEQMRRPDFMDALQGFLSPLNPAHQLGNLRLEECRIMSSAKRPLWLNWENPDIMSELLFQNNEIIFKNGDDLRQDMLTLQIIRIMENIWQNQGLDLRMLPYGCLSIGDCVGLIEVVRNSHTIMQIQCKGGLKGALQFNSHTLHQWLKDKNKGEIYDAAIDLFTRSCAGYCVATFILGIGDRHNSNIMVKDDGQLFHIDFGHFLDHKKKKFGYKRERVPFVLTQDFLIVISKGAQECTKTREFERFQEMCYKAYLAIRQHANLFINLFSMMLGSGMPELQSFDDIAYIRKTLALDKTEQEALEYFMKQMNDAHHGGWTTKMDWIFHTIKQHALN
T1 sequence (P27986 whole entry partner): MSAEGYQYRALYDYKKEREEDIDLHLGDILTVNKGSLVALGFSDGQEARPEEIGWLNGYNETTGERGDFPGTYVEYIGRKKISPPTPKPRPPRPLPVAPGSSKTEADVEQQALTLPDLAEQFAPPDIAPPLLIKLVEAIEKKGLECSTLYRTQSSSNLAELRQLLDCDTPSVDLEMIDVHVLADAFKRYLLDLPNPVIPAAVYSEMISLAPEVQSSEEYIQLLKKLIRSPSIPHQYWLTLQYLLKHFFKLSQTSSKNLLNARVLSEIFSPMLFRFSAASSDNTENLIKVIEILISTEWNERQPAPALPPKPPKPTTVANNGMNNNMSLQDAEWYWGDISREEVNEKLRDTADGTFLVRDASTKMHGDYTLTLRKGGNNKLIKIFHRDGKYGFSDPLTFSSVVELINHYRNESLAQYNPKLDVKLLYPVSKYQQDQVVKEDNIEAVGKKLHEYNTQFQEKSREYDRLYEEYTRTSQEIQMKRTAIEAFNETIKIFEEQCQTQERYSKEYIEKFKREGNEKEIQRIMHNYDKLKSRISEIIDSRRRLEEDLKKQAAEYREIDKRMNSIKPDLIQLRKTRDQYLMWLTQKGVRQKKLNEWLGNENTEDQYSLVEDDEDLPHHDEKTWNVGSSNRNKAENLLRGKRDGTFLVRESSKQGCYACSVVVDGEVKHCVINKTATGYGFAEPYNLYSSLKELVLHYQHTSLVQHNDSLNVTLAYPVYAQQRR
Experimental: N-terminally His-tagged PI3K alpha (Cat. No. PV4789; 0.49 mg/ml), Alexa Fluor® 647 labeled kinase Tracer 314 (Cat. No. PV6087), Biotin anti-His Tag antibody (Cat. No PV6089) and LanthaScreen® Eu-Streptavidin (Cat. No. PV5899) were purchased from Life Technologies. The 1× Kinase Buffer A consists of 50 mM HEPES pH 7.5, 10 mM MgCl2, 1 mM EGTA, and 0.01% (v/v) Brij-35 (Sigma Cat. No. B4184-100ML).
A 4-fold serial dilution of each compound to be tested was prepared in DMSO (master dilution) in a 96-well polystyrene plate (Falcon Cat. No. 353072, flat bottom) with the highest concentration at 1000 μM and the lowest at 0.004 μM. The master dilution series were diluted further 33.3-fold into Kinase Buffer A by transferring 5 μl of each concentration of diluted compound to 162 μl Kinase Buffer A in a new 96-well plate resulting to a 3-fold serially compound dilution. Based on a Tracer 314 titration experiment a working concentration of 20 nM was chosen. Therefore a 60 nM Tracer 314 solution in Kinase Buffer A was prepared resulting in a 3-fold concentrated solution. A 3-fold concentrated kinase/antibody solution at 15 nM kinase, 6 nM antibody and 6 nM Eu-Streptavidin was prepared in Kinase Buffer A. Five μl of each 3× serially diluted compound were dispensed in a 384-well plate in duplicate. Then to each well 5 μl of 3× kinase/antibody mixture was added followed by the addition of 5 μl 3× Tracer 314 solution. After 1 h incubation at rt, time-resolved FRET was measured with a Synergy 4 multi-mode microplate reader (Biotek Instruments) using the following settings: 100 μs delay before data collection, 200 μs time for data collection, 10 measurements per data point. Emission filter: 665 nm/8 nm with sensitivity set to 163 and 620 nm/10 nm with sensitivity set to 135; Excitation filter: 340 nm/30 nm; Dichroic mirror 400 nm.
For data analysis, emission ratio was calculated by dividing the signal emitted at 665 nm from the acceptor (Alexa Fluor® 647 labeled Tracer 314) by the signal emitted at 620 nm from the donor (Eu-labeled antibody). IC50 values of each compound were determined by plotting the emission ratio versus the compound concentrations (in logarithmic scale) and then by fitting a sigmoidal dose-response curve with variable slope to the data using GraphPad™ Prism.

[3] = test system: pPKB S473; assay: In-cell Western blot, pPKB S473; assay type: cell-based; details: Homo sapiens; A2058 cells, treated 1 h, normalized to α-Tubulin
Experimental: as §1, §2, §3

Row | Structure (SMILES) | IC50 [2] [nM] | IC50 [1] [nM] | IC50 [3] [nM]
1 | Nc1cc(C(F)(F)F)c(-c2nc(N3CCOCC3)c3c(n2)N2CCOC[C@H]2C3)cn1 [Compound 6, (R)-5-(4-morpholino-5a,6,8,9-tetrahydro-5H-pyrimido[5′,4′:4,5]pyrrolo[2,1-c][1,4]oxazin-2-yl)-4-(trifluoromethyl)pyridin-2-amine] | 390 | 696 | 425
2 | Nc1ncc(-c2nc(N3CCOCC3)c3c(n2)N2CCOC[C@H]2C3)cn1 [Compound 9, (R)-5-(4-morpholino-5a,6,8,9-tetrahydro-5H-pyrimido[5′,4′:4,5]pyrrolo[2,1-c][1,4]oxazin-2-yl)pyrimidin-2-amine] | 411 | 65 | 145
3 | Nc1ncc(-c2nc(N3CCOCC3)c3c(n2)N2CCOC[C@@H]2C3)cn1 [Compound 25, (S)-5-(4-morpholino-5a,6,8,9-tetrahydro-5H-pyrimido[5′,4′:4,5]pyrrolo[2,1-c][1,4]oxazin-2-yl)pyrimidin-2-amine] | 76 | 98 | 154
4 | Nc1cc(C(F)(F)F)c(-c2nc(N3CCOCC3)nc3c2C[C@@H]2COCCN32)cn1 [Compound 38, (R)-5-(2-morpholino-5a,6,8,9-tetrahydro-5H-pyrimido[5′,4′:4,5]pyrrolo[2,1-c][1,4]oxazin-4-yl)-4-(trifluoromethyl)pyridin-2-amine] | 2620 | 9080 | 5910
5 | Nc1ncc(-c2nc(N3CCOCC3)nc3c2C[C@H]2COCCN32)cn1 [Compound 57, (S)-5-(2-morpholino-5a,6,8,9-tetrahydro-5H-pyrimido[5′,4′:4,5]pyrrolo[2,1-c][1,4]oxazin-4-yl)pyrimidin-2-amine] | 1640 | 594 | 1260

Continued by falling IC50 [2], values first:

Row | IC50 [2] [nM] | Structure (SMILES) | IC50 [1] [nM] | IC50 [3] [nM]
6 | 383 | Nc1cc(C(F)(F)F)c(-c2nc(N3CCOCC3)nc3c2C[C@H]2COCCN32)cn1 [Compound 54, (S)-5-(2-morpholino-5a,6,8,9-tetrahydro-5H-pyrimido[5′,4′:4,5]pyrrolo[2,1-c][1,4]oxazin-4-yl)-4-(trifluoromethyl)pyridin-2-amine] | 2110 | 833
7 | 231 | Nc1ncc(-c2nc(N3CCOCC3)nc3c2C[C@@H]2COCCN32)cn1 [Compound 41, (R)-5-(2-morpholino-5a,6,8,9-tetrahydro-5H-pyrimido[5′,4′:4,5]pyrrolo[2,1-c][1,4]oxazin-4-yl)pyrimidin-2-amine] | 574 | 575
8 | 98.1 | Nc1cc(C(F)(F)F)c(-c2nc(N3CCOCC3)c3c(n2)N2CCOC[C@@H]2C3)cn1 [Compound 22, (S)-5-(4-morpholino-5a,6,8,9-tetrahydro-5H-pyrimido[5′,4′:4,5]pyrrolo[2,1-c][1,4]oxazin-2-yl)-4-(trifluoromethyl)pyridin-2-amine] | 1090 | 428

— patent US9556203B2, “Conformationally restricted P13K and mTOR inhibitors” (UNIVERSITAET BASEL, priority 2013, dated 2017)
